Source: publication PMC11840788, “3,3′-Diindolylmethane (DIM): A Molecular Scaffold for Inhibition of WWP1 and WWP2, Members of the NEDD4 Family HECT E3 Ligases” (ACS Omega, 2025)
“And” between values parts separate entries of the source, which are not always exact repeats. Equal entries are not always repeated.

Target: T1, WWP2 (GST-tagged WWP2-FL) (Homo sapiens, UniProt O00308)
T1 construct: Full- length WWP2 (WWP2-FL); made in house; host or cells: E. coli BL21-CodonPlus RP (plasmid pGEX2T-WWP2-FL, Dr Andrew Chantry's Lab)
Experiment: in vitro autoubiquitination assay (single shot and dose dependency), WWP2
Format: biochemical
Settings: single shot, compound at 1 mM (1% DMSO), standardized to 0 and 100% controls
Experimental: A single shot in vitro autoubiquitination assay was performed for I3C, DIM and each of the derivatives against WWP1 and WWP2 using a compound concentration of 1 mM (1% DMSO) (SI Figure S3). […] These active compounds were then subjected to a detailed dose dependency analysis leading to IC50 values. This strategy has previously been employed to screen other WWP1/WWP2 small molecule inhibitors as well as used to assess I3C inhibition toward NEDD4-1.[29],[32] In this way, compounds displaying a relative activity (RA) of less than 50% in the single shot assay were further screened for dose-dependency using a logarithmic concentration range from 10 nM to 1 mM (1% DMSO) (SI Figure S4). […] These were confirmed by counter assays to remove compounds possibly interacting with other enzymes in the assay or interfering with the assay directly (SI Table S1).
Cell lysate containing His-tagged WWP1-L34H or GST-tagged WWP2-FL proteins were incubated on either 96-well Clear Pierce glutathione or nickel-coated plates for 1 h. Reaction mixtures of either 3 ng/well GST-Uba1 and 15 ng/well UbcH7 or 10 ng/well His-Uba1 and 150 ng/well His-UbcH7 were incubated together in 25 mM Tris pH 8.0, 100 mM NaCl, 4 mM MgCl2 containing 60 ng/well FLAG-ubiquitin and 1.25 mM ATP for 40 min. A prior 1% BSA plate blocking step is required for nickel-coated plates. After plate washing, 2 μL of the compound was added at the desired concentration (1% DMSO) followed by 18 μL of the reaction mixture. This was then incubated for 2 h with 0 and 100% controls before 100 μL of anti-FLAG M2-Peroxidase HRP (1:10,000 PBST) was added to each well and incubated for 1 h. Finally, 100 μL of 1 × TMB substrate solution (Invitrogen) was added to each well and incubated for up to 10 min until sufficient blue color change was observed. To stop the reaction, 100 μL of 1 M HCl was added. For the counter assay, 3 ng/well GST-Uba1 and 200 ng/well UbcH7 were incubated with the other reaction mixture components for 1 h before incubating onto plates for a further 1 h. All other steps were followed. The plates were washed three times with PBST (and 15 mM Imidazole) between each step. Quantification was measured by absorbance read at 450 nm. All assay optimizations were as previously reported.[32] IC50 nonlinear regression curves were calculated in GraphPad v10.2 (Prism). […]
Auto-ubiquitination Assay
Cell lysate containing His-tagged WWP1-L34H or GST-tagged WWP2-FL proteins were incubated on either 96-well Clear Pierce glutathione 2 or nickel-coated plates for 1 hour. Reaction mixtures of either 3 ng/well GST-Uba1 and 15 ng/well UbcH7 or 10 ng/well His-Uba1 and 150 ng/well His-UbcH7 were incubated together in 25 mM Tris pH 8.0, 100 mM NaCl, 4 mM MgCl2 containing 60 ng/well FLAG-ubiquitin and 1.25 mM ATP for 40 minutes. A prior 1 % BSA plate blocking step is required for nickel-coated plates. After plate washing, 2 μL of the compound was added at the desired concentration (1 % DMSO) followed by 18 μL of the reaction mixture. This was then incubated for 2 hours with 0% and 100% controls before 100 μL of anti-FLAG M2-Peroxidase HRP (1: 10,000 PBST) was added to each well and incubated for 1 hour.
Finally, 100 μL of 1 × TMB substrate solution (Invitrogen) was added to each well and […]
incubated for up to 10 minutes until sufficient blue colour change was observed. To stop the reaction, 100 μL of 1 M HCl was added. For the counter assay, 3 ng/well GST-Uba1 and 200 ng/well UbcH7 were incubated with the other reaction mixture components for 1 hour before incubating onto plates for a further 1 hour. All other steps were followed.
The plates were washed three times with PBST (and 15 mM Imidazole) between each step. Quantification was measured by absorbance read at 450 nm. All assay optimisations have been previously reported by Watt and colleagues3.
Relative activity (RA) was determined by comparing the autoubiquitination of the WWP ligases in the presence of each compound, i.e TMB absorbance (450 nm), to the […]

T1 sequence (O00308 whole entry): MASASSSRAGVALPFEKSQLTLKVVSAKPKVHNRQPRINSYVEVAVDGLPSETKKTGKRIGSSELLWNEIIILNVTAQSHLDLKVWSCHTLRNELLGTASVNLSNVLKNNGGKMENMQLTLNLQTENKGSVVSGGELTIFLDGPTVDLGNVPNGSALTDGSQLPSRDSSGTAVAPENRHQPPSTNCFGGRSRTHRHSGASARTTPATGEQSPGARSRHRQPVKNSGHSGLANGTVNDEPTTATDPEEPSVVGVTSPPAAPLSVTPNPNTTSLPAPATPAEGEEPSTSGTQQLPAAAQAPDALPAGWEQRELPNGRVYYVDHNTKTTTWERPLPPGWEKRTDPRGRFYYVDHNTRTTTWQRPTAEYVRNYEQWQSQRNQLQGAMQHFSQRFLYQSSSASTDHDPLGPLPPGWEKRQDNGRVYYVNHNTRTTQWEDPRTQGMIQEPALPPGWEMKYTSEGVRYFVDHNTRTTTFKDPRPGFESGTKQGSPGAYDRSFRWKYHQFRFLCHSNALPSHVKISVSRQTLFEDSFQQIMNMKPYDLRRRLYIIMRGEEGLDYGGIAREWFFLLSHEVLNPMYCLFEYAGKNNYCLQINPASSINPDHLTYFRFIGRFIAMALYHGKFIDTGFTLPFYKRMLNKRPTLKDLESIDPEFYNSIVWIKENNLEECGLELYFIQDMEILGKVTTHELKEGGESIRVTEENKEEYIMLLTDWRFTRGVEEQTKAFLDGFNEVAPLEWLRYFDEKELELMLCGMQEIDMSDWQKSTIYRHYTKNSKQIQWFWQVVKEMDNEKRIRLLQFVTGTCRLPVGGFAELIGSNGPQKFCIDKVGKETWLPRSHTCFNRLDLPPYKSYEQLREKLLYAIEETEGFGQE

WWP2 RA (%) relative activity: 88.0 ± 7.5% and 88.0%
SMILES: OCc1c[nH]c2ccccc12 [Compound I3C, Indole-3-carbinol, reference compound]
